What all share (type): in vivo, mouse
The test system of assay [1] is corticosterone in blood. The experiment in a line: Corticosterone in blood, Escherichia coli-induced model. The note with it: E. coli model mice; once a day for 5 days; NK112 samples 1×10^9 CFU, fluoxetine 1 mg/kg. Here is the method:
(§1) 5-week-old male C57BL/6 mice having a body weight of 19 to 21 g were divided into a normal group and an experimental group, with 6 mice per group, and acclimatized to the laboratory for 1 week, and then the experiment was performed. The experimental group was administered with Escherichia coli (1×10^9 CFU/mouse/day) orally once a day for 5 days, and the normal group was administered with physiological saline.
(§2) Thereafter, 1×10^9 CFU heat-treated lactic acid bacteria (heat-killed NK112), 1×10^9 CFU lactic acid bacteria lysate supernatant (NK112 cytoplasmic component), 1×10^9 CFU lactic acid bacteria lysate precipitate (NK112 cell wall component), or positive control group drug (fluoxetine 1 mg/kg) was administered once a day for 5 days, respectively.
In addition, the concentration of corticosterone in blood, which induces anxiety, in each mouse was also measured and shown in Table 2 below.

The subject of assay [2] is male C57BL/6 mice administered with Escherichia coli. The experiment in a line: Elevated plus maze (EPM) test, Escherichia coli-induced model. The note with it: E. coli model mice; once a day for 5 days; NK112 samples 1×10^9 CFU, fluoxetine 1 mg/kg. Here is the method:
5-week-old male C57BL/6 mice having a body weight of 19 to 21 g were divided into a normal group and an experimental group, with 6 mice per group, and acclimatized to the laboratory for 1 week, and then the experiment was performed. The experimental group was administered with Escherichia coli (1×10^9 CFU/mouse/day) orally once a day for 5 days, and the normal group was administered with physiological saline. […]
The elevated plus maze is an experimental apparatus to measure the level of anxiety, depression, or stress, etc. […] The movements of the mouse placed in the elevated plus maze were recorded in a room with a brightness of 20 lux and a video camera installed above.
Specifically, a C57BL/6 mouse was placed facing the open arm with its head in the exact center of the elevated plus maze, and the time and number of times it spent in the open arms and the enclosed arms for 5 minutes were measured. […]
Of the total experimental time, time spent in open arms (OT) was calculated as [time spent in open arms/(time spent in open arms+time spent in enclosed arms)]×100. Open arm entry (OE) was calculated as [open arm entry/(open arm entry+enclosed arm entry)]×100. […]

The test system is the same in assay [3]. Nature of the assay: Tail suspension test (TST), Escherichia coli-induced model. As to conditions: E. coli model mice; once a day for 5 days; NK112 samples 1×10^9 CFU, fluoxetine 1 mg/kg. On the procedure: as §1
Thereafter, 1×10^9 CFU heat-treated lactic acid bacteria (heat-killed NK112), 1×10^9 CFU lactic acid bacteria lysate supernatant (NK112 cytoplasmic component), 1×10^9 CFU lactic acid bacteria lysate precipitate (NK112 cell wall component), or positive control group drug (fluoxetine 1 mg/kg) was administered once a day for 5 days, respectively. […]
According to the method of Steru et al. (Steru L, Chermat R, Thierry B, Simon P (1985) The tail suspension test: A new method for screening antidepressants in mice, Psychopharmacology, Vol. 85; pp. 367-370), A fixation apparatus was attached to the end of the mouse's tail about 1 cm, and then it was hung 50 cm away from the ground in a container with a diameter of 35 cm and a height of 50 cm. The immobility time of the experimental animals was measured for a total of 6 minutes.

For assay [4] the test system is unchanged. The experiment in a line: Forced swimming test (FST), Escherichia coli-induced model. The note with it: E. coli model mice; once a day for 5 days; NK112 samples 1×10^9 CFU, fluoxetine 1 mg/kg. On the procedure: as §1, §2
In the case of heat-treated lactic acid bacteria (heat-killed NK112), the precipitate obtained by centrifuging the lactic acid bacteria culture solution in MRS medium was suspended to 1×10^10 CFU/ml, and then heat-treated twice at 70° C. for 10 minutes each to prepare them. […]
A water tank with a height of 40 cm and a diameter of 20 cm was filled with water at a temperature of 25±1° C. to a height of 30 cm. […] The first 2 minutes were not measured as adaptation time, and the immobility time of the experimental animals was measured for the next 4 minutes. […]

Assay [5] has the same test system. The experiment in a line: Novel object recognition test (NORT), Escherichia coli-induced model. As to conditions: recognition index; E. coli model mice; donepezil 5 mg/kg.
Description: The mouse was moved to the behavior observation room and acclimatized for 5 minutes. Thereafter, in a 3-minute exposure trial, two identical objects (1 set) were placed in a box 30 cm apart, and the time the mouse recognized the objects for 3 minutes was measured. […] The recognition index (%) is converted into the preference for new objects (time to recognize novel objects/total recognition time)×100.
For assay [6] the test system is unchanged. The experiment in a line: Y-maze task, Escherichia coli-induced model. The note with it: spontaneous alternation; E. coli model mice; donepezil 5 mg/kg.
Description: In order to evaluate spatial cognitive ability, a Y-maze task was performed. In a Y-shaped maze that has a length of 40 cm, a width of 4 cm, and a height of 12 cm and is closed on all sides, three paths were designated as A, B, and C. Then, a mouse was placed in the center and observed for 8 minutes, and the total number of entries entered was recorded. If the mouse entered three different branches in turn, the alternation number was counted as 1. […] The alternation number is defined as entering all three in turn, and the calculation for evaluation of spatial cognitive function was performed using the following equation.
Spontaneous alternation (%)=(total number of alternation/(total number of entries-2))×100

The results in this text go back to US20240325469A1, “COMPOSITION FOR PREVENTION OR TREATMENT OF COGNITIVE DYSFUNCTION AND INTESTINAL DYSFUNCTION, COMPRISING LACTOBACILLUS PARACASEI NK112, CUSCUTA AUSTRALIS EXTRACT, AND CUSCUTA JAPONICA EXTRACT” (MTHERA PHARMA CO., LTD., priority 2021, published 2024).

For the compound `CNCCC(Oc1ccc(C(F)(F)F)cc1)c1ccccc1` (stereo not drawn) [Fluoxetine, fluoxetine], the “Corticosterone in blood” value in assay [1] is listed as 202.5 ng/mL. For the same compound, the “EPM test (%, time spent in open arm)” value in assay [2] is recorded as 9.8%. In addition, the “TST test (%, immbolity time)” value in assay [3] worked out at 33.5%. In addition, the “FST test (%, immobility time)” value in assay [4] was found to be 32.1%.
Regarding `COc1cc2c(cc1OC)C(=O)C(CC1CCN(Cc3ccccc3)CC1)C2` (stereo not drawn) [Donepezil, donepezil], the “NORT test (%)” value in assay [5] amounted to 62.2%. In addition, the “Y-maze task (%)” value in assay [6] is recorded as 63.2%.
